Structures are written as SMILES.

Results on 19 compounds are retold here after ChEMBL document CHEMBL1144874, “Exploring structure-activity relationships of transition state analogues of human purine nucleoside phosphorylase” (J Med Chem, 2003).

Assay [1] has as its target T1, Purine nucleoside phosphorylase (Homo sapiens, UniProt P00491).
T1 sequence (P00491 whole entry): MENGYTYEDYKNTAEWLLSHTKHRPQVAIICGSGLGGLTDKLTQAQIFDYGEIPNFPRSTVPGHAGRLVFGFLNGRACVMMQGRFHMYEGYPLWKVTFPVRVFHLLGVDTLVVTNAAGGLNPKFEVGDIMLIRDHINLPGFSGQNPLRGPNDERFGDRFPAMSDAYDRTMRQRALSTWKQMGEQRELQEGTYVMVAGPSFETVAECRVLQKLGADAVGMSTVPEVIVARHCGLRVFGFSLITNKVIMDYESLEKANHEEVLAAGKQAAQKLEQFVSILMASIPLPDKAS
Description: Inhibition of human purine nucleoside phosphorylase; Initial rate.

Assay [2] has as its target T1, Purine nucleoside phosphorylase. The source holds these as a separate data set.
Description: Equilibrium dissociation constant determined against human purine nucleoside phosphorylase (PNP) after slow-onset inhibition

In general, Ki refers to the dissociation constant of the complex between target and ligand, obtained from inhibition or displacement. A higher Ki goes with a looser hold on the target. On to `OC[C@@H]1[C@H](O)C(O)CN1Cc1c[nH]c2c(O)ncnc12` (stereo partly drawn), for which, in assay [1], the inhibition constant (Ki) is 2.84 nM.
Regarding `OC[C@H]1N[C@@H](c2c(F)[nH]c3c(O)ncnc23)C(O)[C@H]1O` (stereo partly drawn), the Ki came to 5.6 nM in assay [1] and 0.39 nM in assay [2].
In assay [1], `OC[C@H]1N[C@@H](c2c[nH]c3c(O)ncnc23)C(F)(F)[C@H]1O` had a Ki of 1.4 nM.
With `CCCN1[C@H](CO)[C@H](O)C(O)[C@@H]1c1c[nH]c2c(O)ncnc12` (stereo partly drawn), the Ki in assay [1] amounted to 415 nM.
Same read-out and setting: for `Nc1[nH]cnc2c(C[C@@H]3N[C@H](CO)[C@H](O)C3O)cnc1-2` (stereo partly drawn) the value was more than 30000 nM.
Turning to `OC[C@H]1N[C@@H](c2n[nH]c3c(O)ncnc23)[C@H](O)[C@@H]1O`, the Ki was 1.4 nM in assay [1] and 0.18 nM in assay [2].
The compound `Cn1cc([C@@H]2N[C@H](CO)[C@H](O)C2O)c2ncnc(O)c21` (stereo partly drawn) registered a Ki in assay [1] of 4.7 nM.
As to `Nc1nc2c([C@@H]3N[C@H](CO)[C@@H](O)[C@H]3O)c[nH]c2c(=O)[nH]1`, the figures for the Ki in assay [1] and in assay [2] were 0.54 nM and 0.042 nM, respectively.
For `OC[C@H]1N[C@@H](c2c[nH]c3c(S)ncnc23)C(O)[C@H]1O` (stereo partly drawn), the Ki in assay [1] stood at 24.7 nM.
Regarding `Oc1ncnc2c([C@@H]3N[C@H](CF)[C@H](O)C3O)c[nH]c12` (stereo partly drawn), the inhibition constant (Ki) in assay [1] is 81 nM; in assay [2] it was 7 nM.
Turning to `OC[C@@H]1CC(O)[C@H](c2c[nH]c3c(O)ncnc23)N1` (stereo partly drawn), in assay [1], the Ki was 9.5 nM.
The compound `OC[C@@H]1[C@H](O)C(O)CN1c1c[nH]c2c(O)ncnc12` (stereo partly drawn) showed a Ki in assay [1] of 12700 nM.
Regarding `OC[C@H]1N[C@@H](Cc2c[nH]c3c(O)ncnc23)C(O)[C@H]1O` (stereo partly drawn), affinity in assay [1] was put at a Ki of 250 nM.
`COC1[C@@H](O)[C@@H](CO)N[C@H]1c1c[nH]c2c(=O)[nH]cnc12` (stereo partly drawn) yielded a Ki in assay [1] of 5.9 nM.
With `Nc1nc(O)c2[nH]cc([C@H]3C[C@@H](O)[C@@H](CO)N3)c2n1`, the affinity in assay [1] corresponds to a Ki of 0.22 nM.
In turn, `COc1[nH]cnc2c([C@@H]3N[C@H](CO)[C@H](O)C3O)cnc1-2` (stereo partly drawn) gave a Ki in assay [1] of 4.7 nM.
In turn, `Cc1nc2c(O)[nH]cnc-2c1[C@@H]1N[C@H](CO)[C@H](O)C1O` (stereo partly drawn) had an inhibition constant (Ki) in assay [1] of 10.1 nM.
Take `C[C@H]1N[C@@H](c2c[nH]c3c(=O)[nH]cnc23)C(O)[C@H]1O` (stereo partly drawn): the Ki in assay [1] was found to be 25 nM.
On the same count and under the same terms, for `OC[C@H]1N[C@@H](c2c[nH]c3c(O)ncnc23)C[C@H]1O` the value was 0.25 nM.
